The results in this text go back to patent US20260061085A1, “CYCLIC PEPTIDE AND PREPARATION METHOD THEREFOR, AND COMPLEX COMPRISING SAME AND USE THEREOF” (HEXIN (SUZHOU) PHARMACEUTICAL TECHNOLOGY CO., LTD., priority 2022, published 2026).

A short description of data set [1]: Stability by in vitro constant temperature (37° C.) incubation in mouse plasma, LC-MS/MS. It is filed as in vitro ADME. The protocol:
(§1) The experiment was carried out by using an in vitro constant temperature (37° C.) incubation method to study the stability of the cyclic peptide APN21 of Example 21 and the cyclic peptide KE5 of Comparative Example 1 in mouse plasma or PBS (1.0 μg/mL). The two cyclic peptides were dissolved in 1 mL of mouse […], respectively, and incubated at 37° C. for 0 h, 0.5 h, 1 h, 4 h, 24 h, and 48 h, and a percentage of drug remaining was then measured and determined. PBS was used as a negative control group. Peak areas of the drug and an internal standard were measured using an LC-MS/MS method, and ratios of the peaks were used instead of the drug concentration for calculation.

Data set [2] in a line: Stability by in vitro constant temperature (37° C.) incubation in PBS, LC-MS/MS. It is filed as physicochemical. The protocol: as §1
The test system of data set [3] is HT-1080 tumor-bearing mice. The data set is described as follows: Small-animal PET/CT imaging of HT-1080 tumor-bearing mice with CD13 blocking. It is filed as in vivo. As to conditions: co-injected with unlabeled NGR peptide 15 mg/kg, tail vein, 0.5, 1 and 2 hours after injection, versus unblocked APN21 Group. As for the experimental part: HT-1080 cells were taken from normal NCr nude mice (18-25 g, 4-6 weeks old, n=3), and 2λ10^6 cells were implanted subcutaneously in right shoulders of mice in a mixture of 200 μL phosphate buffer and matrix gel (v/v, 1/1). […] PET/CT and image analysis were performed using a small-animal NovclMedcal PET/CT scanner (Novel Medical Equipment Ltd., Beijing). Maximum tangential and radial half-widths of the scanner in a center of field of view were 1.5 mm, and at an edge of the field of view were 1.8 mm. […] Static PET/CT images were obtained for 15 min at 0.5, 1, and 2 hours after intravenous injection. […] Static PET/CT images were obtained for 15 min at 0.5, 1, and 2 hours after intravenous injection. […] Static PET/CT images were obtained for 15 min at 0.5, 1, and 2 hours after intravenous injection. […] […] PET and CT images were acquired using NMSoft workstation software (Novel Medical Equipment Ltd., Beijing), and data were given as a percentage of injected dose per gram of tissue or organ (ID/g), and were determined through decay correction for each sample (standardized to a known weight of the injected dose).

Data set [4] relates to HT-1080 cells. The experiment in a line: Relative cell uptake of Cy3 fluorescent peptides by HT-1080 cells. It is filed as cell-based, human. As to conditions: Cy3 fluorescent peptide, 37° C. 30 min, multiple of KE5-Cy3 uptake taken as 1.00. As for the experimental part:
The binding affinity of the polypeptides in the examples and comparative examples to an HT-1080 cell line was identified through cell uptake studies.
The human fibrosarcoma cell line HT-1080 was cultured in Dulbecco's Modified Eagle Medium (DMEM) (Gibco) mixed with 10% sterile filtered fetal bovine serum (FBS) and 1% penicillin-streptomycin antibiotic solution. The cell culture was maintained in a controlled environment at 37° C. and 5% CO2, and subculture was performed every 3-4 days. 24 hours prior to the experiment, cells were seeded in a 96-well plate (5000 cells per well) and cultured overnight until the cells adhered to a wall. Before the experiment, cells were washed twice with […] of phosphate-buffered saline (PBS) to remove a growth medium.
Purification is performed through HPLC.
HT-1080 cells were treated with KE5-Cy3 fluorescent peptide of Comparative Example 1.
After incubation at 37° C. for 30 min, the cells were washed twice with PBS, an intracellular fluorescence intensity was measured using a fluorescence microplate reader (with an […]) to evaluate the uptake of KE5-Cy3 fluorescent peptide by HT-1080 cells.
(§2) 10 μL of CCK-8 were added to each group of cells and incubated for 4 h, the cells were then read using a microplate reader (with a wavelength of 490 nm), and errors in fluorescence intensity of each group of cells caused by difference in a number of cells was corrected by CCK-8.
Each group was subjected to the above operation three times to determine an optimal concentration for the uptake of KE5-Cy3 fluorescent peptide by HT-1080 cells.
(§3) HT-1080 cells were treated with the APN-Cy3 fluorescent peptide of each of the Examples, wherein a concentration of each APN-Cy3 fluorescent peptide was an optimal concentration determined by KE5-Cy3 fluorescent peptides of Comparative Example 1 according to the uptake by the HT-1080 cells.
(§4) After incubation at 37° C. for 30 min, the cells were washed twice with PBS, an intracellular fluorescence intensity was measured using a fluorescence microplate reader (with an […]) to evaluate the uptake of APN-Cy3 fluorescent peptide by HT-1080 cells.
A relative cell uptake (RCU) for each APN-Cy3 fluorescent peptide relative to the KE5-Cy3 fluorescent peptide was calculated using the following formula: […]

Data set [5] addresses T1, Aminopeptidase N (APN, also known as CD13) (human, UniProt P15144 2-967).
T1 construct: whole, on cells; The assay itself used HT-1080 cells (endogenous expression, not transfected); also called CD13 protein; CD13 receptor
The data set is described as follows: Cy3 fluorescence uptake by HT-1080 cells, 37 C 30 min, microplate reader, CCK-8 corrected, relative to KE5-Cy3. The protocol:
as §3, §4, §2

Where [6] appears, read: 0.5 h, read-out: percentage of drug remaining.
Setting [7] is: 1 h, read-out: percentage of drug remaining.
The mark [8] stands for this setting: 4 h, read-out: percentage of drug remaining.
Where [9] appears, read: 24 h, read-out: percentage of drug remaining.
[10] abbreviates: 48 h, read-out: percentage of drug remaining.

Square brackets hold non-standard residues; d marks the D form. Peptide text beside a SMILES is read from it. NMeN = CN[C@@H](CC(N)=O)C(=O)O; Orn = NCCC[C@H](N)C(=O)O; Dab = NCC[C@H](N)C(=O)O; Sar = CNCC(=O)O

T1 sequence (P15144 2-967): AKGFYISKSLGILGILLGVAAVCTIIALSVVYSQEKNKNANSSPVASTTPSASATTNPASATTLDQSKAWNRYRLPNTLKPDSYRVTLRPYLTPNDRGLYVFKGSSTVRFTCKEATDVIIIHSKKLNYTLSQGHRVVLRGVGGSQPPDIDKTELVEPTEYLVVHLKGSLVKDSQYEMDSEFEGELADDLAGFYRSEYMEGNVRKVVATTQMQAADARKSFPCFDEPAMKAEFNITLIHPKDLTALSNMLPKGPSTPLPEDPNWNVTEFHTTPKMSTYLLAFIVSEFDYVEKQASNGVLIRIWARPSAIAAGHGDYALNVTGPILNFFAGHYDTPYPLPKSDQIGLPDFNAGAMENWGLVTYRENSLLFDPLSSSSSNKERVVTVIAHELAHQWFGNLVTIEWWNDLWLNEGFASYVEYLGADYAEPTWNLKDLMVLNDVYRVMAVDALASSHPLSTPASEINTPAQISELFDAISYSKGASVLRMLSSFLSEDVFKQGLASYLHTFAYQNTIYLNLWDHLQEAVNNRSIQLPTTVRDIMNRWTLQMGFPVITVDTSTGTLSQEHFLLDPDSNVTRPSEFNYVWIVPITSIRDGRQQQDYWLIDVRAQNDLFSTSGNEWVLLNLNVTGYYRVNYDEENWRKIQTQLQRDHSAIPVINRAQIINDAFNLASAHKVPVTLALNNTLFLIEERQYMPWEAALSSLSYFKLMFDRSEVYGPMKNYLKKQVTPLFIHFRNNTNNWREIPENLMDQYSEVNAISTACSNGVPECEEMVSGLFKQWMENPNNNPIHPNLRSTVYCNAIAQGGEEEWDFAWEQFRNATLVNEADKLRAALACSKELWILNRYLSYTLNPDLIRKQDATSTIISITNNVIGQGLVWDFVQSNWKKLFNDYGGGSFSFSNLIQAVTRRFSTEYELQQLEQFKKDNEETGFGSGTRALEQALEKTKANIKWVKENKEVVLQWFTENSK

As to `N=C(N)NCCC[C@@H]1NC(=O)CNC(=O)[C@H](CC(N)=O)NC(=O)[C@H](CCCCN)NC(=O)[C@H](CCC(=O)O)NC1=O` [Comparative Example 1, cyclo(NGREK), reference compound] (cyclo(EKNGR)), the “percentage of drug remaining” value in data set [1] (0 h) and in data set [2] (0 h) was 100% in each case. Also, the share remaining at 0.5 h, 1 μg/mL in data set [1] (setting [6]) was 94.8%; in data set [2] (setting [6]) it was 99.1%. Moreover, the amount remaining at 1 h, 1 μg/mL in data set [1] (setting [7]) was found to be 89.4%; in data set [2] (setting [7]), 96.6%. Also, the results for the fraction remaining at 4 h, 1 μg/mL in data set [1] (setting [8]) and in data set [2] (setting [8]) were 80.2% and 91.4%, respectively. In addition, the figures for the amount remaining at 24 h, 1 μg/mL in data set [1] (setting [9]) and in data set [2] (setting [9]) were 39.8% and 73.4%, respectively. Moreover, the amount remaining at 48 h, 1 μg/mL in data set [1] (setting [10]) turned out to be 12.4%; in data set [2] (setting [10]), 42.7%.

As for “^68Ga-APN21-Bn-SCN-NOTA: ^68Ga-labelled conjugate of cyclic peptide APN21 (Example 21) with NOTA-Bn-SCN chelator (cyclo(N[Sar]RTKY); not fully specified (residue 5); also: 68Ga-NOTA-Bn-SCN chelator conjugated, site not given here)”, the “PET/CT signal intensity (tumor uptake) in APN21-Blocking Group” value in data set [3] is reported as “significantly weaker than that of the unblocked APN21 group”.

“cyclo(NGRDK) (cyclic; circular) [Example 1]”: the “RCU (relative cell uptake)” value in data set [4] turned out to be 0.65.

For “cyclo(NGRTCE) (cyclic; circular) [Example 10]”, the “RCU (relative cell uptake)” value in data set [4] turned out to be 0.77.

As for “cyclo(NGRTCF) (cyclic; circular) [Example 12]”, the “RCU (relative cell uptake)” value in data set [4] came out at 0.82.

“cyclo(NGRTCG) (cyclic; circular) [Example 13]”: in data set [4], the “RCU (relative cell uptake)” value turned out to be 0.49.

For the molecule “cyclo(NGRTCV) (cyclic; circular) [Example 11]”, the “RCU (relative cell uptake)” value in data set [4] stood at 0.92.

Regarding “cyclo(NGRTCY) (cyclic; circular) [Example 14]”, in data set [4], the “RCU (relative cell uptake)” value was 1.05.

Take “cyclo(NGRTKF) (cyclic; circular) [Example 7]”: in data set [4], the “RCU (relative cell uptake)” value is 0.56.

In the case of “cyclo(NGRTKG) (cyclic; circular) [Example 8]”, in data set [4], the “RCU (relative cell uptake)” value was 1.14.

On to “cyclo(NGRTKf) (cyclo(NGRTK[dF]); SMILES C[C@@H](O)[C@@H]1NC(=O)[C@H](CCCNC(=N)N)NC(=O)CNC(=O)[C@H](CC(N)=O)NC(=O)[C@@H](Cc2ccccc2)NC(=O)[C@H](CCCCN)NC1=O) [Example 17]”, for which, in data set [4], the “RCU (relative cell uptake)” value was determined as 0.49.

In the case of “cyclo(NSarRTDabY) (cyclo(N[Sar]RT[Dab]Y); SMILES C[C@@H](O)[C@@H]1NC(=O)[C@H](CCCNC(=N)N)NC(=O)CN(C)C(=O)[C@H](CC(N)=O)NC(=O)[C@H](Cc2ccc(O)cc2)NC(=O)[C@H](CCN)NC1=O) [Example 24]”, the “RCU (relative cell uptake)” value in data set [4] turned out to be 0.57.

Consider “cyclo(NSarRTOrnY) (cyclo(N[Sar]RT[Orn]Y); SMILES C[C@@H](O)[C@@H]1NC(=O)[C@H](CCCNC(=N)N)NC(=O)CN(C)C(=O)[C@H](CC(N)=O)NC(=O)[C@H](Cc2ccc(O)cc2)NC(=O)[C@H](CCCN)NC1=O) [Example 23]”, for which the “RCU (relative cell uptake)” value in data set [4] was found to be 1.20.

With “cyclo(NSarRTcY) (cyclo(N[Sar]RT[dC]Y); SMILES C[C@@H](O)[C@@H]1NC(=O)[C@H](CCCNC(=N)N)NC(=O)CN(C)C(=O)[C@H](CC(N)=O)NC(=O)[C@H](Cc2ccc(O)cc2)NC(=O)[C@@H](CS)NC1=O) [Example 25]”, the “RCU (relative cell uptake)” value in data set [4] is recorded as 0.72.

Regarding “cyclo(NmeGRTDabY) (cyclo([NMeN]GRT[Dab]Y); SMILES C[C@@H](O)[C@@H]1NC(=O)[C@H](CCCNC(=N)N)NC(=O)CNC(=O)[C@H](CC(N)=O)N(C)C(=O)[C@H](Cc2ccc(O)cc2)NC(=O)[C@H](CCN)NC1=O) [Example 26]”, in data set [4], the “RCU (relative cell uptake)” value came to 0.41.

On to “cyclo(NmeGRTKY) (cyclo([NMeN]GRTKY); SMILES C[C@@H](O)[C@@H]1NC(=O)[C@H](CCCNC(=N)N)NC(=O)CNC(=O)[C@H](CC(N)=O)N(C)C(=O)[C@H](Cc2ccc(O)cc2)NC(=O)[C@H](CCCCN)NC1=O) [Example 20]”, for which the “RCU (relative cell uptake)” value in data set [4] came out at 0.78.

Turning to “cyclo(NmeGRTOrnY) (cyclo([NMeN]GRT[Orn]Y); SMILES C[C@@H](O)[C@@H]1NC(=O)[C@H](CCCNC(=N)N)NC(=O)CNC(=O)[C@H](CC(N)=O)N(C)C(=O)[C@H](Cc2ccc(O)cc2)NC(=O)[C@H](CCCN)NC1=O) [Example 27]”, the “RCU (relative cell uptake)” value in data set [4] came to 0.37.

“cyclo(NmeGRTcY) (cyclo([NMeN]GRT[dC]Y)) [Example 28]”: the “RCU (relative cell uptake)” value in data set [4] is 0.62.

B1: APN21-Cy3 fluorescent peptide (Example 21) (peptide)
peptide: cyclo(N[Sar]RTKY)
modifications: not fully specified (residue 5); also: Cy3 dye attached via Cy3-NHS, site not given here
notes: also called cyclo(NSarRTKY)
As to B1, in data set [5], the “RCU (relative cell uptake, KE5-Cy3 = 1.00)” value was 5.68 fold of KE5-Cy3.

Usually amount remaining stands for the share of the starting amount still present when the sample was taken.
